{"source": "patent US20200405739A1", "about": "“MTOR INHIBITOR, PHARMACEUTICAL COMPOSITION AND USE THEREOF” (SHENYANG FUYANG PHARMACEUTICAL TECHNOLOGY CO., LTD., priority 2018, published 2020)", "key": {"[1]": {"tested_on": "PI3K/Akt/mTOR signaling pathway protein", "experiment": "Western blot of PI3K/Akt/mTOR pathway proteins in A549 cells (Test Example 2)", "assay_type": "cell-based, human", "conditions": "24 h; for activation of PI3K protein, 4EBP1 protein, mTOR protein / expression of Akt protein and S6K1 protein and of their activated proteins: Western blot", "experimental": "A549 cells were purchased from American Type Culture Collection (ATCC, Manassas, Va., USA). The cells were cultured in a DMEM medium containing 10% fetal bovine serum, 2% glutamine and penicillin (100 U/ml) in an incubator at 37° C. with 5% CO2. The cells used in the experiment were all cells in logarithmic phase.\nA549 was an adherent cell, cells in logarithmic growth phase was selected as the experimental group.\n1) 60-100 μl of lysate was added to each tube of cells, and was subjected to ice bath in a refrigerator at 4° C. for 1 h; the solution was centrifuged for 10-15 min at 12,000 r/min, the supernatant was suck out to a 0.5 ml EP tube; after the quantitative protein was measured with Bio-Rad, 5× loading buffers were added, and the solution was subjected to boiling water bath for 3-5 min and then was cryopreserved at −80° C.\n2) 15%, 12% or 10% acrylamide separation gel was prepared according to Tab. 2-1, and was then mixed with various ingredients successively; once TEMED and AP were added, the mixture was quickly rotated and poured between the two glass plates of the electrophoresis tank, leaving the space required for pouring the stacking gel.\nThe separation gel was covered with a layer of isopropyl alcohol, and the gel was placed vertically at room temperature for about 30 min.\n3) After the separation gel was completely polymerized, the isopropyl alcohol was removed, and the gel was washed with deionized water for 10 times; water was absorbed with filter paper, a stacking gel was prepared according to Tab.2-2, and a clean sample comb was immediately inserted after adding the stacking gel into electrophoresis tank.\n4) After the stacking gel was completely polymerized, the electrophoresis instrument was filled with 1×electrophoretic buffer solution, samples were added into sample holes according to a predetermined sequence to start electrophoresis, the voltage was 50-60V when the samples were located at the stacking gel, and the voltage was adjusted to 100-140V when the samples swam to the separation gel.\n1) After the SDS polyacrylamide gel electrophoresis was completed, the gel was placed in the transfer buffer and soaked for 30 min. 8 pieces of Whatman 3 MM filter paper and 1 piece of nitrocellulose membrane were cut out, which were consistent with the size of the gel. The nitrocellulose membrane was immersed in methanol for 1 min, and the nitrocellulose membrane was immersed in deionized water to remove air bubbles.\n2) The gel was stacked into a “sandwich” shape and inserted into the transfer cell. The gel was connected to the cathode on one side, 100 mA for 3 h.\n3) The transferred nitrocellulose membrane entered the Ponceau S staining solution for 5-10 min, and was shaken gently during the period. After the protein band appeared, it was rinsed with deionized water several times, and the position of the standard protein molecular weight was marked with waterproof ink.\n4) The membrane was placed in a petri dish with a blocking solution and blocked for 2 h.\n5) The blocking solution containing a first antibody was added at 0.1 ml/cm^2 and stayed overnight at 4° C. (dilution multiples of various antibodies are as shown in Tab 0.2-2)\n6) The first antibody was recovered, the membrane was rinsed with PBST 3 times for 10 min each time, and was then transferred to a solution containing 150 mM NaCl and 50 mM Tris-HCl (pH 7.5) and shaken for 10 min.\n7) A phosphate-free and sodium azide-free blocking solution containing a second antibody was added at 0.1 ml/cm2, wherein the second antibody labeled with horseradish peroxidase was diluted 1,000 times.\n8) It was rinsed with 150 mM NaCl and 50 mmol/L Tris-HCl (pH 7.5) solution for 3 times for 10 min each time. Color development was carried out in a dark room with an ECL kit, and pictures were scanned and saved. […]"}, "[2]": {"conditions": "human body; cited from earlier work"}, "[3]": {"tested_on": "mouse liver cancer cells H22", "experiment": "in vivo tumor growth inhibition"}, "[4]": {"tested_on": "non-small cell lung cancer cells A549", "experiment": "in vivo tumor growth inhibition"}}, "data": [{"compound": "CCC(=O)O[C@@H]1CC(=O)O[C@H](C)C/C=C/C=C/[C@H](O[C@H]2CC[C@H](N(C)C)[C@@H](C)O2)[C@H](C)C[C@H](CC=O)[C@H](O[C@@H]2O[C@H](C)[C@@H](O[C@H]3C[C@@](C)(O)[C@@H](OC(=O)CC(C)C)[C@H](C)O3)[C@H](N(C)C)[C@H]2O)[C@H]1OC", "note": "[isovalerylspiramycin III]", "values": [{"measurement": "activation of PI3K protein, 4EBP1 protein, mTOR protein", "setting": "[1]", "value": "inhibit the activation of PI3K protein, 4EBP1 protein and mTOR protein"}, {"measurement": "expression of Akt protein and S6K1 protein and of their activated proteins", "setting": "[1]", "value": "inhibit the expression of AKT protein and S6K1 protein and the expression of their activated proteins"}]}, {"compound": "isovalerylspiramycin II", "values": [{"measurement": "activation of PI3K protein, 4EBP1 protein, mTOR protein", "setting": "[1]", "value": "inhibit the activation of PI3K protein, 4EBP1 protein and mTOR protein"}, {"measurement": "expression of Akt protein and S6K1 protein and of their activated proteins", "setting": "[1]", "value": "inhibit the expression of AKT protein and S6K1 protein and the expression of their activated proteins"}]}, {"compound": "spiramycin", "values": [{"measurement": "absolute oral bioavailability", "setting": "[2]", "value": "30-40%"}]}, {"compound": "CO[C@@H]1[C@@H](O[C@@H]2O[C@H](C)[C@@H](O[C@H]3C[C@@](C)(O)[C@@H](OC(=O)CC(C)C)[C@H](C)O3)[C@H](N(C)C)[C@H]2O)[C@@H](CC=O)C[C@@H](C)[C@@H](O[C@H]2CC[C@H](N(C)C)[C@@H](C)O2)/C=C/C=C/C[C@@H](C)OC(=O)C[C@H]1O", "note": "[isovalerylspiramycin I]", "values": [{"measurement": "activation of PI3K protein, 4EBP1 protein, mTOR protein", "setting": "[1]", "value": "inhibit the protein activation of the PI3K/AKT/mTOR signaling pathway"}, {"measurement": "expression of Akt protein and S6K1 protein and of their activated proteins", "setting": "[1]", "value": "inhibit expression of Akt protein and S6K1 protein and expression of their activated proteins"}, {"measurement": "inhibitory effects on AKT, S6K1 and 4EBP1 compared with rapamycin", "setting": "[1]; rapamycin 20 μg/ml as control drug", "value": "more excellent inhibitory effects on AKT, S6K1 and 4EBP1"}, {"measurement": "inhibition of tumor growth in vivo", "setting": "[3]", "value": "obvious inhibiting effects"}, {"measurement": "inhibition of tumor growth in vivo", "setting": "[4]", "value": "obvious inhibiting effects"}]}]}
